# From PubChem BioAssay (NCI)
#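 How tested: cells in 96-well plates exposed to compound for 48 hours at five concentrations. Definition used: TGI = concentration required for complete inhibition of growth.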
# What was measured:
# Assay in all cases: inhibition of tumour cell growth, NCI panel, 48 h
# SK-MEL-28 melanoma = test system: SK-MEL-28 melanoma
# NCI-H226 lung = test system: NCI-H226 lung
# SNB-75 CNS = test system: SNB-75 CNS
# MDA-MB-435 = test system: MDA-MB-435
# EKVX NSCLC = test system: EKVX NSCLC
# T-47D breast = test system: T-47D breast
# HS 578T breast = test system: HS 578T breast
# M14 melanoma = test system: M14 melanoma
# NCI-H460 lung = test system: NCI-H460 lung
# IGROV1 ovarian = test system: IGROV1 ovarian
# LOX IMVI melanoma = test system: LOX IMVI melanoma
# OVCAR-3 ovarian = test system: OVCAR-3 ovarian
# KM12 colon = test system: KM12 colon
# A498 renal = test system: A498 renal
# TK-10 renal = test system: TK-10 renal
# COLO 205 colon = test system: COLO 205 colon
# SW-620 colon = test system: SW-620 colon
# HCT-15 colon = test system: HCT-15 colon
# SF-295 CNS = test system: SF-295 CNS
# NCI/ADR-RES ovarian = test system: NCI/ADR-RES ovarian
# SK-MEL-2 melanoma = test system: SK-MEL-2 melanoma
# SN12C renal = test system: SN12C renal
# HOP-62 NSCLC = test system: HOP-62 NSCLC
# MDA-N = test system: MDA-N
# SK-OV-3 ovarian = test system: SK-OV-3 ovarian
# RXF 393 renal = test system: RXF 393 renal
# MALME-3M melanoma = test system: MALME-3M melanoma
# SK-MEL-5 melanoma = test system: SK-MEL-5 melanoma
# ACHN renal = test system: ACHN renal
# 786-0 renal = test system: 786-0 renal
# HCC-2998 colon = test system: HCC-2998 colon
# SF-268 CNS = test system: SF-268 CNS
# MDA-MB-231 breast = test system: MDA-MB-231 breast
# CAKI-1 renal = test system: CAKI-1 renal
# U251 CNS = test system: U251 CNS
# UO-31 renal = test system: UO-31 renal
# DU-145 prostate = test system: DU-145 prostate
# SF-539 CNS = test system: SF-539 CNS
# MCF7 breast = test system: MCF7 breast
# OVCAR-5 ovarian = test system: OVCAR-5 ovarian
# NCI-H522 lung = test system: NCI-H522 lung
# OVCAR-8 ovarian = test system: OVCAR-8 ovarian
# PC-3 prostate = test system: PC-3 prostate
# HT29 colon = test system: HT29 colon
# K-562 leukemia = test system: K-562 leukemia
# UACC-62 melanoma = test system: UACC-62 melanoma
# OVCAR-4 ovarian = test system: OVCAR-4 ovarian
# RPMI-8226 leukemia = test system: RPMI-8226 leukemia
# MOLT-4 leukemia = test system: MOLT-4 leukemia
# A549 NSCLC = test system: A549 NSCLC
# CCRF-CEM leukemia = test system: CCRF-CEM leukemia
# HOP-92 NSCLC = test system: HOP-92 NSCLC
# SR leukemia = test system: SR leukemia
# NCI-H23 lung = test system: NCI-H23 lung
# HL-60(TB) leukemia = test system: HL-60(TB) leukemia
# SNB-19 CNS = test system: SNB-19 CNS
# HCT-116 colon = test system: HCT-116 colon
# UACC-257 melanoma = test system: UACC-257 melanoma
smiles,measurement,setting,value
CC(=C\c1ccccc1)/C=C(\C#N)C(N)=O,TGI,SK-MEL-28 melanoma,> 10 µM
same,TGI,NCI-H226 lung,> 10 µM
same,TGI,SNB-75 CNS,> 10 µM
same,TGI,MDA-MB-435,> 10 µM
same,TGI,EKVX NSCLC,> 10 µM
same,TGI,T-47D breast,> 10 µM
same,TGI,HS 578T breast,> 10 µM
same,TGI,M14 melanoma,> 10 µM
same,TGI,NCI-H460 lung,> 10 µM
same,TGI,IGROV1 ovarian,> 10 µM
same,TGI,LOX IMVI melanoma,> 10 µM
same,TGI,OVCAR-3 ovarian,> 10 µM
same,TGI,KM12 colon,> 10 µM
same,TGI,A498 renal,> 10 µM
same,TGI,TK-10 renal,> 10 µM
same,TGI,COLO 205 colon,> 10 µM
same,TGI,SW-620 colon,> 10 µM
same,TGI,HCT-15 colon,> 10 µM
same,TGI,SF-295 CNS,> 10 µM
same,TGI,NCI/ADR-RES ovarian,> 10 µM
same,TGI,SK-MEL-2 melanoma,> 10 µM
same,TGI,SN12C renal,> 10 µM
same,TGI,HOP-62 NSCLC,> 10 µM
same,TGI,MDA-N,> 10 µM
same,TGI,SK-OV-3 ovarian,> 10 µM
same,TGI,RXF 393 renal,> 10 µM
same,TGI,MALME-3M melanoma,> 10 µM
same,TGI,SK-MEL-5 melanoma,> 10 µM
same,TGI,ACHN renal,> 10 µM
same,TGI,786-0 renal,> 10 µM
same,TGI,HCC-2998 colon,> 10 µM
same,TGI,SF-268 CNS,> 10 µM
same,TGI,MDA-MB-231 breast,> 10 µM
same,TGI,CAKI-1 renal,> 10 µM
same,TGI,U251 CNS,> 10 µM
same,TGI,UO-31 renal,> 10 µM
same,TGI,DU-145 prostate,> 10 µM
same,TGI,SF-539 CNS,> 10 µM
same,TGI,MCF7 breast,> 10 µM
same,TGI,OVCAR-5 ovarian,> 10 µM
same,TGI,NCI-H522 lung,> 10 µM
same,TGI,OVCAR-8 ovarian,> 10 µM
same,TGI,PC-3 prostate,> 10 µM
same,TGI,HT29 colon,> 10 µM
CCOC(=O)NC1CN2CCC1CC2 (configuration not stated),TGI,SK-MEL-28 melanoma,> 100 µM
same,TGI,NCI-H226 lung,> 100 µM
same,TGI,K-562 leukemia,> 100 µM
same,TGI,SNB-75 CNS,> 100 µM
same,TGI,MDA-MB-435,> 100 µM
same,TGI,EKVX NSCLC,> 100 µM
same,TGI,T-47D breast,> 100 µM
same,TGI,UACC-62 melanoma,> 100 µM
same,TGI,OVCAR-4 ovarian,> 100 µM
same,TGI,HS 578T breast,> 100 µM
same,TGI,M14 melanoma,> 100 µM
same,TGI,RPMI-8226 leukemia,> 100 µM
same,TGI,NCI-H460 lung,> 100 µM
same,TGI,IGROV1 ovarian,> 100 µM
same,TGI,MOLT-4 leukemia,> 100 µM
same,TGI,LOX IMVI melanoma,> 100 µM
same,TGI,OVCAR-3 ovarian,> 100 µM
same,TGI,KM12 colon,> 100 µM
same,TGI,A498 renal,> 100 µM
same,TGI,COLO 205 colon,> 100 µM
same,TGI,SW-620 colon,> 100 µM
same,TGI,A549 NSCLC,> 100 µM
same,TGI,HCT-15 colon,> 100 µM
same,TGI,SF-295 CNS,> 100 µM
same,TGI,NCI/ADR-RES ovarian,> 100 µM
same,TGI,SK-MEL-2 melanoma,> 100 µM
same,TGI,SN12C renal,> 100 µM
same,TGI,HOP-62 NSCLC,> 100 µM
same,TGI,CCRF-CEM leukemia,> 100 µM
same,TGI,HOP-92 NSCLC,> 100 µM
same,TGI,SR leukemia,> 100 µM
same,TGI,MDA-N,> 100 µM
same,TGI,SK-OV-3 ovarian,> 100 µM
same,TGI,RXF 393 renal,> 100 µM
same,TGI,NCI-H23 lung,> 100 µM
same,TGI,MALME-3M melanoma,> 100 µM
same,TGI,SK-MEL-5 melanoma,> 100 µM
same,TGI,ACHN renal,> 100 µM
same,TGI,786-0 renal,> 100 µM
same,TGI,HCC-2998 colon,> 100 µM
same,TGI,SF-268 CNS,> 100 µM
same,TGI,MDA-MB-231 breast,> 100 µM
same,TGI,CAKI-1 renal,> 100 µM
same,TGI,U251 CNS,> 100 µM
same,TGI,HL-60(TB) leukemia,> 100 µM
same,TGI,SNB-19 CNS,> 100 µM
same,TGI,UO-31 renal,> 100 µM
same,TGI,HCT-116 colon,> 100 µM
same,TGI,DU-145 prostate,> 100 µM
same,TGI,SF-539 CNS,> 100 µM
same,TGI,OVCAR-5 ovarian,> 100 µM
same,TGI,NCI-H522 lung,> 100 µM
same,TGI,UACC-257 melanoma,> 100 µM
same,TGI,OVCAR-8 ovarian,> 100 µM
same,TGI,PC-3 prostate,> 100 µM
same,TGI,HT29 colon,> 100 µM
O=C1/C(=C/c2ccccc2)NC(=S)N1CN1CCOCC1,TGI,SK-MEL-28 melanoma,> 100 µM
same,TGI,NCI-H226 lung,> 100 µM
same,TGI,K-562 leukemia,> 100 µM
same,TGI,SNB-75 CNS,> 100 µM
same,TGI,MDA-MB-435,> 100 µM
same,TGI,EKVX NSCLC,> 100 µM
same,TGI,UACC-62 melanoma,> 100 µM
same,TGI,OVCAR-4 ovarian,> 100 µM
same,TGI,HS 578T breast,> 100 µM
same,TGI,M14 melanoma,> 100 µM
same,TGI,RPMI-8226 leukemia,> 100 µM
same,TGI,IGROV1 ovarian,> 100 µM
same,TGI,MOLT-4 leukemia,> 100 µM
same,TGI,LOX IMVI melanoma,> 100 µM
same,TGI,OVCAR-3 ovarian,> 100 µM
same,TGI,KM12 colon,> 100 µM
same,TGI,A498 renal,> 100 µM
same,TGI,TK-10 renal,> 100 µM
same,TGI,COLO 205 colon,> 100 µM
same,TGI,SW-620 colon,> 100 µM
same,TGI,A549 NSCLC,> 100 µM
same,TGI,HCT-15 colon,> 100 µM
same,TGI,SF-295 CNS,> 100 µM
same,TGI,NCI/ADR-RES ovarian,> 100 µM
same,TGI,SK-MEL-2 melanoma,> 100 µM
same,TGI,SN12C renal,> 100 µM
same,TGI,HOP-62 NSCLC,> 100 µM
same,TGI,CCRF-CEM leukemia,> 100 µM
same,TGI,HOP-92 NSCLC,> 100 µM
same,TGI,SR leukemia,> 100 µM
same,TGI,MDA-N,> 100 µM
same,TGI,SK-OV-3 ovarian,> 100 µM
same,TGI,NCI-H23 lung,> 100 µM
same,TGI,MALME-3M melanoma,> 100 µM
same,TGI,SK-MEL-5 melanoma,> 100 µM
same,TGI,ACHN renal,> 100 µM
same,TGI,786-0 renal,> 100 µM
same,TGI,SF-268 CNS,> 100 µM
same,TGI,MDA-MB-231 breast,> 100 µM
same,TGI,U251 CNS,> 100 µM
same,TGI,SNB-19 CNS,> 100 µM
same,TGI,UO-31 renal,> 100 µM
same,TGI,HCT-116 colon,> 100 µM
same,TGI,DU-145 prostate,> 100 µM
same,TGI,MCF7 breast,> 100 µM
same,TGI,OVCAR-5 ovarian,> 100 µM
same,TGI,UACC-257 melanoma,> 100 µM
same,TGI,OVCAR-8 ovarian,> 100 µM
same,TGI,PC-3 prostate,> 100 µM
same,TGI,HT29 colon,> 100 µM
O=[N+]([O-])c1cc2c(c3nonc13)OCCCCO2,TGI,SK-MEL-28 melanoma,22.5 µM
same,TGI,NCI-H226 lung,28.2 µM
same,TGI,K-562 leukemia,17.3 µM
same,TGI,SNB-75 CNS,22.7 µM
same,TGI,MDA-MB-435,17.9 µM
same,TGI,EKVX NSCLC,38.5 µM
same,TGI,T-47D breast,60.5 µM
same,TGI,UACC-62 melanoma,21.5 µM
same,TGI,OVCAR-4 ovarian,27.4 µM
same,TGI,HS 578T breast,67.7 µM
same,TGI,M14 melanoma,17.9 µM
same,TGI,RPMI-8226 leukemia,16.3 µM
same,TGI,NCI-H460 lung,14 µM
same,TGI,IGROV1 ovarian,21.2 µM
same,TGI,MOLT-4 leukemia,9.79 µM
same,TGI,LOX IMVI melanoma,12.6 µM
same,TGI,OVCAR-3 ovarian,7.53 µM
same,TGI,KM12 colon,20.7 µM
same,TGI,A498 renal,47.6 µM
same,TGI,TK-10 renal,93.7 µM
same,TGI,COLO 205 colon,17.9 µM
same,TGI,SW-620 colon,20.7 µM
same,TGI,A549 NSCLC,33.5 µM
same,TGI,HCT-15 colon,13.7 µM
same,TGI,SF-295 CNS,31.6 µM
same,TGI,NCI/ADR-RES ovarian,62.6 µM
same,TGI,SK-MEL-2 melanoma,29.2 µM
same,TGI,SN12C renal,16.1 µM
same,TGI,HOP-62 NSCLC,16.2 µM
same,TGI,CCRF-CEM leukemia,4.98 µM
same,TGI,HOP-92 NSCLC,26.3 µM
same,TGI,MDA-N,16.4 µM
same,TGI,SK-OV-3 ovarian,65 µM
same,TGI,RXF 393 renal,20 µM
same,TGI,NCI-H23 lung,25.2 µM
same,TGI,MALME-3M melanoma,11.9 µM
same,TGI,SK-MEL-5 melanoma,21.2 µM
same,TGI,ACHN renal,19.6 µM
same,TGI,786-0 renal,10.7 µM
same,TGI,HCC-2998 colon,35.5 µM
same,TGI,SF-268 CNS,27.3 µM
same,TGI,MDA-MB-231 breast,12.1 µM
same,TGI,CAKI-1 renal,34.3 µM
same,TGI,U251 CNS,45.5 µM
same,TGI,HL-60(TB) leukemia,5.15 µM
same,TGI,SNB-19 CNS,34.6 µM
same,TGI,UO-31 renal,19.7 µM
same,TGI,HCT-116 colon,3.46 µM
same,TGI,DU-145 prostate,28.2 µM
same,TGI,SF-539 CNS,7.27 µM
same,TGI,MCF7 breast,24.2 µM
same,TGI,OVCAR-5 ovarian,26.2 µM
same,TGI,NCI-H522 lung,17.4 µM
same,TGI,UACC-257 melanoma,28.9 µM
same,TGI,OVCAR-8 ovarian,14.2 µM
same,TGI,PC-3 prostate,41.7 µM
same,TGI,HT29 colon,21.1 µM
